Test results reported in patent publication US11304419B2, “Methods to induce heat stress tolerance in plants” (Valent BioSciences LLC, priority 2020, dated 2022).

Columns and labels:
Format in all cases: in vivo
[1] = test system: Apogee wheat; assay: Heat stress tolerance in wheat following ACC application at Feekes stage 5 (Example 2); conditions: heat stress 34/28° C. 4 days
Procedure: Apogee wheat was seeded into ProMix BX (Premier Horticulture) and grown in a growth cabinet under the following conditions: 24/18° C. day/night temperature under a 16/8 hour light/dark photoperiod. Plants were evaluated at Feekes stage 5 following the first set of growth conditions on Nov. 15, 2019. Next, spray applications of 0, 0 or 100 ppm ACC (n=8) were made using a track sprayer. Next, 2 days following treatment, one set of control plants (“treatment control”) and the 100 ppm ACC plants were transferred to a second growth cabinet at 34/28° C. day/night temperature under a 16/8-hour light/dark photoperiod for 4 days. These conditions constitute significant heat stress. The other set of control plants (“stress control”) remained in the first growth cabinet. Finally, the plants were then returned to the first growth cabinet for about 14 days where plants reached Feekes stage 10.1 (head emergence). Plants were then destructively harvested and measured for total spike number, fresh weight, total reproductive tiller number, percent reproductive tillers, A canopy density and total dry weight. Percent reproductive tillers is calculated by dividing the number of reproductive tillers by the total number of spikes at harvest. A canopy density is calculated by subtracting the canopy density at treatment from the canopy density at harvest.

[2] = test system: Butterhead lettuce; assay: Heat stress tolerance in lettuce following ACC application at rosette stage; conditions: heat stress 34/30° C. nine days; for Canopy Density / Fresh Weight / Δ Canopy Density: n = 5; for Canopy Density, percent increase over stress control / Fresh Weight, percent increase over stress control / Δ Canopy Density, percent increase over stress control: vs stress control; for Canopy Density, percent increase over treatment control / Fresh Weight, percent increase over treatment control / Δ Canopy Density, percent increase over treatment control: vs treatment control
Procedure: Butterhead lettuce was seeded into ProMix BX (Premier Horticulture) and grown in a greenhouse. Three weeks post-sowing the lettuce was transferred to a growth cabinet under the following conditions: 24/18° C. day/night temperature under a 16/8 hour light/dark photoperiod. Plants were at head formation (rosette) stage following the first set of growth conditions. 4 days after transfer canopy density was calculated. Next, spray applications of 0, 10, 30 or 100 ppm ACC (n=5) were made using a track sprayer on Sep. 21, 2020. Next, two days following treatment, half of the plants were transferred to a second growth cabinet at 34/30° C. day/night temperature under a 16/8-hour light/dark photoperiod for nine days. These conditions constitute significant heat stress. Plants were then destructively harvested and measured for fresh weight, size, canopy density and A canopy density. A canopy density is calculated by subtracting the canopy density at treatment from the canopy density at harvest.

[3] = test system: Williams 82 soybean; assay: Heat stress tolerance in soybean following ACC application; conditions: heat stress 34/30° C. six days; for Canopy Density / Fresh Weight / Height / Total Dry Weight / Δ Canopy Density: n = 5; for Canopy Density, percent increase over stress control / Fresh Weight, percent increase over stress control / Height, percent increase over stress control / Total Dry Weight, percent increase over stress control / Δ Canopy Density, percent increase over stress control: vs stress control; for Canopy Density, percent increase over treatment control / Fresh Weight, percent increase over treatment control / Height, percent increase over treatment control / Total Dry Weight, percent increase over treatment control / Δ Canopy Density, percent increase over treatment control: vs treatment control
Procedure: Williams 82 soybean was seeded into ProMix BX (Premier Horticulture) and grown in a greenhouse. […] Next, spray applications of […] (n=5) were made using a track sprayer on Oct. 9, 2020. Following spraying, plants were moved to a growth cabinet under the following conditions: 24/18 C day night temperatures under a 16/8 light dark period. Next, 3 days following treatment, half of the plants were transferred to a second growth cabinet at 34/30° C. day/night temperature under a 16/8-hour light/dark photoperiod for six days. These conditions constitute early season heat stress. Plants were then destructively harvested and measured for fresh weight, canopy density, Δ canopy density, total dry weight and height.

[4] = 100 ppm ACC spray at Feekes stage 5, n = 8
[5] = 100 ppm ACC, vs stress control (no heat)
[6] = 100 ppm ACC, vs treatment control (heat, no ACC)
[7] = 10 ppm ACC spray at rosette stage
[8] = 30 ppm ACC spray at rosette stage
[9] = 100 ppm ACC spray at rosette stage

NC1(C(=O)O)CC1 [ACC, 1-amino-1-cyclopropanecarboxylic acid]
% Reproductive Tillers [1, 4]: 89.60% | Fresh Weight [1, 4]: 9.18 grams | Total Dry Weight [1, 4]: 2.12 grams | Total Spike Number [1, 4]: 3.13 | Total Tiller Number [1, 4]: 2.75 | Δ Canopy Density [1, 4]: 1.52 | Fresh Weight, percent increase over stress control [1, 5]: (−18.8%) | Total Dry Weight, percent increase over stress control [1, 5]: (−16.9%) | Total Spike Number, percent increase over stress control [1, 5]: (−7.1%) | Total Tiller Number, percent increase over stress control [1, 5]: (−12.1%) | % Reproductive Tillers, percent increase over treatment control [1, 6]: [43.4%] | Fresh Weight, percent increase over treatment control [1, 6]: [19.2%] | Total Dry Weight, percent increase over treatment control [1, 6]: [7.6%] | Total Spike Number, percent increase over treatment control [1, 6]: [−3.7%] | Total Tiller Number, percent increase over treatment control [1, 6]: [37.5%] | Δ Canopy Density, percent increase over treatment control [1, 6]: [42.1%] | Canopy Density [2, 7]: 15.58 | Fresh Weight [2, 7]: 93.94 grams | Δ Canopy Density [2, 7]: 5.12 | Canopy Density, percent increase over stress control ([2]; 10 ppm ACC): (−11.5%) | Fresh Weight, percent increase over stress control ([2]; 10 ppm ACC): (−8.5%) | Δ Canopy Density, percent increase over stress control ([2]; 10 ppm ACC): (−24.9%) | Canopy Density, percent increase over treatment control ([2]; 10 ppm ACC): [5.9%] | Fresh Weight, percent increase over treatment control ([2]; 10 ppm ACC): [11.6%] | Δ Canopy Density, percent increase over treatment control ([2]; 10 ppm ACC): [46.3%] | Canopy Density [2, 8]: 16.65 | Fresh Weight [2, 8]: 115.11 grams | Δ Canopy Density [2, 8]: 5.08 | Canopy Density, percent increase over stress control ([2]; 30 ppm ACC): (−5.4%) | Fresh Weight, percent increase over stress control ([2]; 30 ppm ACC): (12.1%) | Δ Canopy Density, percent increase over stress control ([2]; 30 ppm ACC): (−25.5%) | Canopy Density, percent increase over treatment control ([2]; 30 ppm ACC): [13.2%] | Fresh Weight, percent increase over treatment control ([2]; 30 ppm ACC): [36.8%] | Δ Canopy Density, percent increase over treatment control ([2]; 30 ppm ACC): [45.1%] | Canopy Density [2, 9]: 15.80 | Fresh Weight [2, 9]: 97.51 grams | Δ Canopy Density [2, 9]: 4.11 | Canopy Density, percent increase over stress control ([2]; 100 ppm ACC): (−10.2%) | Fresh Weight, percent increase over stress control ([2]; 100 ppm ACC): (−5.1%) | Δ Canopy Density, percent increase over stress control ([2]; 100 ppm ACC): (−39.7%) | Canopy Density, percent increase over treatment control ([2]; 100 ppm ACC): [7.4%] | Fresh Weight, percent increase over treatment control ([2]; 100 ppm ACC): [15.9%] | Δ Canopy Density, percent increase over treatment control ([2]; 100 ppm ACC): [17.4%] | Canopy Density ([3]; 10 ppm ACC spray at V1): 13.24 | Fresh Weight ([3]; 10 ppm ACC spray at V1): 19.85 grams | Height ([3]; 10 ppm ACC spray at V1): 41.07 cm | Total Dry Weight ([3]; 10 ppm ACC spray at V1): 3.15 grams | Δ Canopy Density ([3]; 10 ppm ACC spray at V1): 7.77 | Canopy Density, percent increase over stress control ([3]; 10 ppm ACC): (83.9%) | Fresh Weight, percent increase over stress control ([3]; 10 ppm ACC): (32.8%) | Height, percent increase over stress control ([3]; 10 ppm ACC): (30.1%) | Total Dry Weight, percent increase over stress control ([3]; 10 ppm ACC): (18.9%) | Δ Canopy Density, percent increase over stress control ([3]; 10 ppm ACC): (256.4%) | Canopy Density, percent increase over treatment control ([3]; 10 ppm ACC): [13.6%] | Fresh Weight, percent increase over treatment control ([3]; 10 ppm ACC): [6.5%] | Height, percent increase over treatment control ([3]; 10 ppm ACC): [7.9%] | Total Dry Weight, percent increase over treatment control ([3]; 10 ppm ACC): [6.8%] | Δ Canopy Density, percent increase over treatment control ([3]; 10 ppm ACC): [22.4%] | Canopy Density ([3]; 30 ppm ACC spray at V1): 12.68 | Fresh Weight ([3]; 30 ppm ACC spray at V1): 20.33 grams | Height ([3]; 30 ppm ACC spray at V1): 38.25 cm | Total Dry Weight ([3]; 30 ppm ACC spray at V1): 3.25 grams | Δ Canopy Density ([3]; 30 ppm ACC spray at V1): 7.19 | Canopy Density, percent increase over stress control ([3]; 30 ppm ACC): (76.1%) | Fresh Weight, percent increase over stress control ([3]; 30 ppm ACC): (36.0%) | Height, percent increase over stress control ([3]; 30 ppm ACC): (21.1%) | Total Dry Weight, percent increase over stress control ([3]; 30 ppm ACC): (22.6%) | Δ Canopy Density, percent increase over stress control ([3]; 30 ppm ACC): (229.8%) | Canopy Density, percent increase over treatment control ([3]; 30 ppm ACC): [8.7%] | Fresh Weight, percent increase over treatment control ([3]; 30 ppm ACC): [9.1%] | Height, percent increase over treatment control ([3]; 30 ppm ACC): [0.5%] | Total Dry Weight, percent increase over treatment control ([3]; 30 ppm ACC): [10.2%] | Δ Canopy Density, percent increase over treatment control ([3]; 30 ppm ACC): [13.2%] | Canopy Density ([3]; 100 ppm ACC spray at V1): 10.90 | Fresh Weight ([3]; 100 ppm ACC spray at V1): 19.25 grams | Height ([3]; 100 ppm ACC spray at V1): 37.95 cm | Total Dry Weight ([3]; 100 ppm ACC spray at V1): 3.08 grams | Δ Canopy Density ([3]; 100 ppm ACC spray at V1): 5.36 | Canopy Density, percent increase over stress control ([3]; 100 ppm ACC): (51.4%) | Fresh Weight, percent increase over stress control ([3]; 100 ppm ACC): (28.8%) | Height, percent increase over stress control ([3]; 100 ppm ACC): (20.2%) | Total Dry Weight, percent increase over stress control ([3]; 100 ppm ACC): (16.2%) | Δ Canopy Density, percent increase over stress control ([3]; 100 ppm ACC): (145.9%) | Canopy Density, percent increase over treatment control ([3]; 100 ppm ACC): [−6.5%] | Fresh Weight, percent increase over treatment control ([3]; 100 ppm ACC): [3.3%] | Height, percent increase over treatment control ([3]; 100 ppm ACC): [−0.3%] | Total Dry Weight, percent increase over treatment control ([3]; 100 ppm ACC): [4.4%] | Δ Canopy Density, percent increase over treatment control ([3]; 100 ppm ACC): [−15.6%]
